Assay results: US20080194585A1, “Fungicidal Pyrazine Derivatives” (priority 2005, published 2008)
Marks after values point to notes of the source that are not given here.

Columns and labels:
Plasmopara viticola = test: Test D: grape downy mildew, spray after inoculation of grape seedlings; format: in vivo
Source text: Upon removal, disease ratings were made. […] A dash (-) indicates no test results.

Phytophthora infestans = test: whole plant or invertebrate; format: in vivo
Septoria tritici = test: Test J: wheat leaf blotch, preventive spray on wheat seedlings; format: in vivo
Source text: A dash (-) indicates no test results.

[1] = test system: Puccinia recondita f. sp. tritici; test: Test K: wheat leaf rust, preventive spray on wheat seedlings
Botrytis cinerea = test: Test E: tomato botrytis, preventive spray on tomato seedlings
Septoria nodorum = test: Test H: wheat glum blotch, preventive spray on wheat seedlings
Method: (the causal agent of wheat glum blotch) and incubated in a saturated atmosphere at 20° C. for 48 h, and then moved to a growth chamber at 22° C. for 5 days, after which disease ratings were made.

[2] = test system: Erysiphe graminis f. sp. tritici; test: Test L: wheat powdery mildew, preventive spray on wheat seedlings
Sclerotinia sclerotiorum = test: Test C: cucumber white mold, preventive spray on cucumber seedlings
Pythium aphanidermatum = test: Test A: bluegrass pythium blight, preventive spray on bluegrass seedlings
Rhizoctonia oryzae = test: Test G: turf brown patch, preventive spray on creeping bent grass seedlings
Method: (the causal agent of turf brown patch) and incubated in a saturated atmosphere at 27° C. for 24 h, and then moved to a growth chamber at 27° C. for 5 days, after which disease ratings were made.

[3] = test system: Colletotrichum orbiculare; test: Test B: cucumber Colletotrichum anthracnose, preventive spray on cucumber seedlings
fusarium graminearium = test: Test I: wheat head scab, preventive spray on wheat seedlings; details: 200 ppm; 100 = 100% disease control, 0 = no control relative to controls
Method: (the causal agent of wheat head scab) and incubated in a saturated atmosphere at 20° C. for 72 h, and then moved to a growth chamber at 22° C. for 5 days, after which disease ratings were made.

[4] = 200 ppm, 100 = 100% disease control, 0 = no control relative to controls

SMILES	Test D disease control rating (Plasmopara viticola; 200 ppm)	Test F disease control rating (Phytophthora infestans; 200 ppm)	Test J disease control rating (Septoria tritici; 200 ppm)	Test K disease control rating ([1]; 200 ppm)	Test E disease control rating (Botrytis cinerea; 200 ppm)	Test H disease control rating (Septoria nodorum; 200 ppm)	Test L disease control rating ([2]; 200 ppm)	Test C disease control rating (Sclerotinia sclerotiorum; 200 ppm)	Test A disease control rating (Pythium aphanidermatum; 200 ppm)	Test G disease control rating (Rhizoctonia oryzae; 200 ppm)	Test B disease control rating ([3]; 200 ppm)	further results
Cc1ccc(-c2nc(Cl)c(-c3c(F)cccc3F)n(CC(C)C)c2=O)nc1 [Compound 209, 5-Chloro-6-(2,6-difluorophenyl)-1-(2-methylpropyl)-3-(5-methyl-2-pyridinyl)-2(1H)-pyrazinone]	–	–	–	–	–	–	–	–	–	–	–	pest or weed control at 200 ppm (Plasmopara viticola; Plasmopara viticola, 168 h, 200 ppm, read-out: Test D disease control rating): 8%; pest or weed control at 200 ppm (Phytophthora infestans; Phytophthora infestans, in Solanum lycopersicum, topical, 144 h, read-out: Test F disease control rating): 0%; pest or weed control at 200 ppm (Septoria tritici; Zymoseptoria tritici, 528 h, 200 ppm, read-out: Test J disease control rating): 96%; pest or weed control at 200 ppm ([1]; Puccinia recondita, in Triticum aestivum, 192 h, read-out: Test K disease control rating): 85%; pest or weed control at 200 ppm (Botrytis cinerea; Botrytis cinerea, in Solanum lycopersicum, topical, 72 h, read-out: Test E disease control rating): 99%; pest or weed control at 200 ppm (Septoria nodorum; Parastagonospora nodorum, in Triticum aestivum, topical, 168 h, read-out: Test H disease control rating, 200 ppm): 0%; pest or weed control at 200 ppm ([2]; Blumeria graminis, in Triticum aestivum, 168 h, read-out: Test L disease control rating, 200 ppm): 0%; pest or weed control at 200 ppm (Sclerotinia sclerotiorum; Sclerotinia sclerotiorum, in Cucumis sativus, 168 h, read-out: Test C disease control rating, 200 ppm): 0%; pest or weed control at 200 ppm (Pythium aphanidermatum; Pythium aphanidermatum, 120 h, read-out: Test A disease control rating): 56%; pest or weed control at 200 ppm (Rhizoctonia oryzae; Waitea circinata, in Agrostis stolonifera, topical, 144 h, read-out: Test G disease control rating, 200 ppm): 34%; pest or weed control at 200 ppm ([3]; Colletotrichum orbiculare, in Cucumis sativus, 144 h, read-out: Test B disease control rating, 200 ppm): 54%
CCC(C)n1c(-c2c(F)cccc2F)c(Cl)nc(-n2cncn2)c1=O (centres unmarked) [compound 32]	15%	0%	32%	100%	100%	100%	0%	95%	0%	92%	0%	–
CC(C)n1c(-c2c(F)cccc2F)c(Cl)nc(-n2cncn2)c1=O [compound 33]	34%	0%	100%	100%	100%	100%	0%	16%	0%	100%	0%	–
CCCn1c(-c2c(F)cccc2F)c(Cl)nc(-n2cncn2)c1=O [compound 34]	10%	26%	97%	99%	100%	100%	89%	16%	0%	100%	0%	–
CC(C)CCn1c(-c2c(F)cccc2F)c(Cl)nc(-n2cccn2)c1=O [compound 35]	5%	0%	100%	88%	100%	100%	97%	0%	0%	90%	0%	–
C=CCn1c(-c2c(F)cccc2F)c(Cl)nc(-n2cccn2)c1=O [compound 58]	47%	0%	98%	100%	100%	100%	99%	0%	0%	92%	99%	–
CC(C)Cn1c(-c2c(F)cccc2F)c(Cl)nc(-c2ccncc2)c1=O [compound 84]	–	–	–	–	–	–	–	–	–	–	–	Test D disease control rating (Plasmopara viticola; 40 ppm (*)): 5* %; Test F disease control rating (Phytophthora infestans; 40 ppm (*)): 0* %; Test J disease control rating (Septoria tritici; 40 ppm (*)): 20* %; Test K disease control rating ([1]; 40 ppm (*)): 0* %; Test E disease control rating (Botrytis cinerea; 40 ppm (*)): 0* %; Test H disease control rating (Septoria nodorum; 40 ppm (*)): 0* %; Test L disease control rating ([2]; 40 ppm (*)): 0* %; Test C disease control rating (Sclerotinia sclerotiorum; 40 ppm (*)): 0* %; Test A disease control rating (Pythium aphanidermatum; 40 ppm (*)): 0* %; Test G disease control rating (Rhizoctonia oryzae; 40 ppm (*)): 0* %; Test B disease control rating ([3]; 40 ppm (*)): 0* %
COCCn1c(-c2c(F)cccc2F)c(Cl)nc(-n2cccn2)c1=O [compound 95]	92%	0%	95%	94%	99%	100%	0%	0%	0%	68%	0%	–
CC(C)Cn1c(-c2c(F)cccc2F)c(Cl)nc(-c2nccs2)c1=O [compound 101]	15%	0%	–	–	–	–	–	0%	0%	–	–	Test J disease control rating (Septoria tritici; 40 ppm (*)): 53* %; Test K disease control rating ([1]; 40 ppm (*)): 0* %; Test E disease control rating (Botrytis cinerea; 40 ppm (*)): 0* %; Test H disease control rating (Septoria nodorum; 40 ppm (*)): 0* %; Test L disease control rating ([2]; 40 ppm (*)): 0* %; Test G disease control rating (Rhizoctonia oryzae; 40 ppm (*)): 0* %; Test B disease control rating ([3]; 40 ppm (*)): 0* %
CC(C)Cn1c(-c2cc(F)cc(F)c2F)c(Cl)nc(-n2cncn2)c1=O [compound 138]	–	–	–	–	–	–	–	–	–	–	–	Test D disease control rating (Plasmopara viticola; 100 ppm (#)): 12# %; Test F disease control rating (Phytophthora infestans; 100 ppm (#)): 0# %; Test J disease control rating (Septoria tritici; 100 ppm (#)): 46# %; Test K disease control rating ([1]; 100 ppm (#)): 0# %; Test E disease control rating (Botrytis cinerea; 100 ppm (#)): 83# %; Test H disease control rating (Septoria nodorum; 100 ppm (#)): 0# %; Test L disease control rating ([2]; 100 ppm (#)): 0# %; Test C disease control rating (Sclerotinia sclerotiorum; 100 ppm (#)): 24# %; Test A disease control rating (Pythium aphanidermatum; 100 ppm (#)): 0# %; Test G disease control rating (Rhizoctonia oryzae; 100 ppm (#)): 55# %; Test B disease control rating ([3]; 100 ppm (#)): 0# %
CC(C)Cn1c(-c2ccccc2C(F)(F)F)c(Cl)nc(-n2cncn2)c1=O [compound 140]	12%	0%	41%	0%	99%	0%	0%	83%	0%	34%	0%	–
CC(C)Cn1c(-c2ccccc2C(F)(F)F)c(Cl)nc(-n2cccn2)c1=O [compound 141]	12%	0%	99%	60%	92%	73%	79%	63%	0%	96%	96%	–
Cc1nc(C(N)=O)c(=N)n(CC(C)C)c1-c1ccc(F)cc1F [compound 427]	–	–	–	–	–	–	–	–	–	–	–	Test D disease control rating (Plasmopara viticola; [4]): 0%; Test F disease control rating (Phytophthora infestans; [4]): 0%; Test J disease control rating (Septoria tritici; [4]): 0%; Test I disease control rating (fusarium graminearium): 0%; Test K disease control rating [1, 4]: 0%; Test E disease control rating (Botrytis cinerea; [4]): 0%; Test H disease control rating (Septoria nodorum; [4]): 0%; Test L disease control rating [2, 4]: 0%; Test A disease control rating (Pythium aphanidermatum; [4]): 0%; Test G disease control rating (Rhizoctonia oryzae; [4]): 0%; Test B disease control rating [3, 4]: 0%
CCC(C)Cn1c(-c2ccc(F)cc2F)c(C)nc(C(N)=O)c1=N (centres unmarked) [compound 428]	–	–	–	–	–	–	–	–	–	–	–	Test D disease control rating (Plasmopara viticola; [4]): 0%; Test F disease control rating (Phytophthora infestans; [4]): 0%; Test J disease control rating (Septoria tritici; [4]): 87%; Test I disease control rating (fusarium graminearium): 0%; Test K disease control rating [1, 4]: 95%; Test E disease control rating (Botrytis cinerea; [4]): 49%; Test H disease control rating (Septoria nodorum; [4]): 0%; Test L disease control rating [2, 4]: 0%; Test A disease control rating (Pythium aphanidermatum; [4]): 0%; Test G disease control rating (Rhizoctonia oryzae; [4]): 0%; Test B disease control rating [3, 4]: 0%
CC(C)Cn1c(-c2ccc(F)cc2F)c(F)nc(C(N)=O)c1=N [compound 429]	–	–	–	–	–	–	–	–	–	–	–	Test D disease control rating (Plasmopara viticola; [4]): 0%; Test F disease control rating (Phytophthora infestans; [4]): 0%; Test J disease control rating (Septoria tritici; [4]): 0%; Test I disease control rating (fusarium graminearium): 62%; Test K disease control rating [1, 4]: 0%; Test E disease control rating (Botrytis cinerea; [4]): 0%; Test H disease control rating (Septoria nodorum; [4]): 0%; Test L disease control rating [2, 4]: 0%; Test A disease control rating (Pythium aphanidermatum; [4]): 88%; Test G disease control rating (Rhizoctonia oryzae; [4]): 0%; Test B disease control rating [3, 4]: 0%
CC(=O)N=c1c(C#N)nc(C)c(-c2ccccc2)n1CC(C)C [compound 431]	–	–	–	–	–	–	–	–	–	–	–	Test D disease control rating (Plasmopara viticola; [4]): 46%; Test F disease control rating (Phytophthora infestans; [4]): 0%; Test J disease control rating (Septoria tritici; [4]): 0%; Test I disease control rating (fusarium graminearium): 28%; Test K disease control rating [1, 4]: 32%; Test E disease control rating (Botrytis cinerea; [4]): 37%; Test H disease control rating (Septoria nodorum; [4]): 0%; Test L disease control rating [2, 4]: 0%; Test A disease control rating (Pythium aphanidermatum; [4]): 88%; Test G disease control rating (Rhizoctonia oryzae; [4]): 16%; Test B disease control rating [3, 4]: 0%
